Test results as given in patent US8507551B2, “Antimicrobial therapy for bacterial infections” (priority 2005, dated 2013).

How the values were obtained:
[1] = tested on: ΔCrtM mutant S. aureus; assay: Whole blood killing assay, ΔCrtM mutant control; assay type: cell-based, Staphylococcus aureus; conditions: ΔCrtM mutant exposed to SKF 525-A, FIG. 4c
Description: (§1) Wild-type and ΔCrtM mutant S. aureus were cultured in the presence or absence of SKF 525-A at the indicated concentrations. Depicted are the observed effects on A) pigmentation phenotype, B) singlet oxygen susceptibility, and C) survival in murine whole blood. Results shown are representative of at least three experiments.
(§2) Given the protective effect provided to the bacteria by the golden yellow pigments, a pharmacologic agent that inhibits carotenogenesis might render S. aureus more susceptible to immune clearance.

[2] = tested on: WT S. aureus; assay: Whole blood killing assay, WT strain; assay type: cell-based, Staphylococcus aureus; conditions: WT S. aureus cultured with SKF 525-A, FIG. 4c
Description: Wild-type and ΔCrtM mutant S. aureus were cultured in the presence or absence of SKF 525-A at the indicated concentrations. […] Results shown are representative of at least three experiments.
as §2

[3] = tested on: WT strain of S. aureus; assay: Pigment production of S. aureus grown in the presence of the agent; assay type: cell-based, Staphylococcus aureus; conditions: FIG. 4a
Description: as §1
Wild-type S. aureus strain (Pig1), isolated from the skin of a child with atopic dermatitis. Streptococcus pyogenes strain 5448 is a well-characterized serotype M1T1 clinical isolate^18. CD1 and C57Bl/6 mice were purchased from Charles River. The gp91^Phox−/− mice were bred at the Veteran's Administration Medical Center, San Diego and maintained on trimethoprim/sulfamethoxazole prophylaxis until 3 d prior to experiments. S. aureus and S. pyogenes were propagated in Todd-Hewitt broth (THB) or on THB agar (Difco, Detroit, Mich.). Unless otherwise indicated, all experiments were performed with bacteria derived from S. aureus 36-48 h stationary phase cultures or S. pyogenes 24 h stationary phase cultures, a point when pigmentation phenotypes were readily apparent.
Stationary phase (48 h) cultures of WT S. aureus Pig1 and its isogenic ΔCrtM mutant were subjected to methanol extraction. The absorbance profile of the extracts was measured with a MBA 2000 spectrophotometer (Perkin Elmer). […]

[4] = tested on: WT strain of S. aureus; conditions: earlier report; moderate residual accumulation of δ carotenoid intermediate noted; cited from earlier work
[5] = tested on: WT S. aureus; assay: Singlet oxygen susceptibility assay (methylene blue and light), WT strain; assay type: cell-based, Staphylococcus aureus; conditions: WT S. aureus cultured with SKF 525-A, FIG. 4b
Description: as §1
(§3) Tests for susceptibility to oxidants were performed either in PBS (S. aureus) or THB (S. pyogenes). Hydrogen peroxide (H2O2) was added to 1.5% final concentration, […] bacteria incubated at 37° C. for 1 h, then 1,000 U/ml of catalase (Sigma) added to quench residual H2O2. […] For the singlet oxygen assay, 10^8 S. aureus or 4×10^8 S. pyogenes were incubated at 37° C. in individual wells of a 24-well culture plate in the presence or absence of 1-6 μg/ml methylene blue and situated exactly 10 cm from a 100-watt light source. Bacterial viability was assessed after 1-3 h by plating dilutions on THA.
as §2

[6] = tested on: ΔCrtM mutant S. aureus; assay: Singlet oxygen susceptibility assay (methylene blue and light), ΔCrtM mutant control; assay type: cell-based, Staphylococcus aureus; conditions: ΔCrtM mutant exposed to SKF 525-A, FIG. 4b
Description: as §1, §3, §2

[7] = tested on: WT and ΔCrtM S. aureus; assay: Protease and cathelicidin sensitivity assays; assay type: cell-based, Staphylococcus aureus; conditions: WT vs ΔCrtM S. aureus, 2 h at 37° C., FIG. 6d, e
Description: Human neutrophil elastase, and cathepsin G were purchased from Calbiochem. The antimicrobial peptide mCRAMP was synthesized at the Louisiana State University Protein Facility (Martha Juban, Director). S. aureus cultures were diluted (1:2,000) in 10 mM phosphate buffer (pH 7.2)+0.5% LB to 1×10^6 CFU/ml. Ninety μl of this bacterial suspension was added to replicate wells in a 96-well plate. Dilutions of the cathepsin G (20 and 100 mU/ml), human neutrophil elastase (12.5 and 50 μg/ml), and murine CRAMP (0.4-3 μM) were prepared in 10 mM phosphate buffer and added to wells in 10 μl volume; 10 mM phosphate buffer alone was used as a negative control. After 2 h incubation at 37° C., 25 μl aliquots of each well were serially diluted in PBS and plated on THB. Each experiment was performed in duplicate and repeated.

[8] = tested on: WT and ΔCrtM S. aureus in human neutrophils; conditions: FIG. 2d
Description: Neutrophils were purified from healthy human volunteers using a Histopaque gradient (Sigma) per manufacturer's directions. Intracellular survival assays were performed as follows. Bacterial cultures were washed twice in PBS, diluted to a concentration of 4.5×10^6 cfu in 100 μl RPMI+10% FCS, and mixed with 3×10^5 neutrophils in the same media (multiplicity of infection, MOI=15:1), centrifuged at 700×g for 5 min, then incubated at 37° C. in a 5% CO2 incubator. Gentamicin (Gibco) (final concentration 400 μg/ml for S. aureus and 100 μg/ml for S. pyogenes) was added after 10 min to kill extracellular bacteria. At specified time points, the contents of sample wells were withdrawn, centrifuged to pellet the neutrophils, and washed to remove the antibiotic medium. Neutrophils were then lysed in 0.02% triton-X, and cfu calculated by plating on THA. Several assays were repeated with addition of a step involving preincubation of the bacterial inoculum with 10% autologous human serum for 15 min on ice.

[9] = tested on: WT and ΔCrtM S. aureus in mouse blood; conditions: FIG. 6c
Description: Bacteria were washed twice in PBS, diluted to an inoculum of 10^4 cfu in 25 μl PBS, and mixed with 75 μl of freshly drawn human or mouse blood in heparinized tubes. The tubes were incubated at 37° C. for 4 h with agitation, at which time dilutions were plated on THA for enumeration of surviving cfu.

In the case of `CCCC(C(=O)OCCN(CC)CC)(c1ccccc1)c1ccccc1` [SKF 525-A, 2-diethylaminoethyl-2,2-diphenyl-valerate], the “effect on blood survival” value [1] is reported as “no significant effects”, the “ability to survive in human whole blood” value [2] is reported as “decrease” and the pigment production [3] is reported as “dose-dependent decrease”. The “pigment formation in S. aureus (previously shown)” value [4] was “inhibit pigment formation”, the “susceptibility to singlet oxygen killing” value [5] was “dose-dependent increase” and the “effect on oxidant susceptibility” value [6] was “no significant effects”.
In the case of “mCRAMP: murine cathelicidin antimicrobial peptide, synthesized at Louisiana State University Protein Facility (ISRLAGLLRKGGEKIGEKLKKIGQKIKNFFQKLVPQPE; Cathelin-related antimicrobial peptide; UniProt P51437 135-172, looked up)”, the “susceptibility of S. aureus to antimicrobial action” value (from here on “susceptibility of S. aureus”) [7] is reported as “equally susceptible”.
In the case of “human neutrophil elastase: granule protease purchased from Calbiochem”, the “susceptibility of S. aureus” value [7] is reported as “resistant”.
With `c1ccc2c(c1)[I+]c1ccccc1-2` [DPI, diphenyleneiodonium] the “survival of WT and ΔCrtM S. aureus in human neutrophils when oxidative burst inhibited” value [8] was “survived equally well” and the “survival of WT and ΔCrtM S. aureus in mouse blood when oxidative burst inhibited” value [9] was “survived equally well”.
For “cathepsin G: granule protease purchased from Calbiochem”, the “susceptibility of S. aureus” value [7] was “no difference”.
